Measured values reported in publication PMC9810167, “Novel dual LSD1/HDAC6 inhibitor for the treatment of cancer” (PLOS ONE, 2023).
Read-outs that look alike come from different tables or passages of the source.

Tests used:
[1] = tested on: HEL92.1.7 xenograft tumors; assay: HEL92.1.7 erythroleukaemia xenograft model; format: in vivo; details: for % tumor growth inhibition (TGI): PO, QD, 14 days
[2] = tested on: HL60; assay: Cell proliferation assay (Alamar Blue); format: cell-based; details: Homo sapiens, HL-60; HL60, Leukemia, 144 h
Method: (§1) Cells were seeded in NUNC 96-well tissue culture plates (Life Technologies) in […] culture medium and incubated at 37°C/ 5% CO2 to adhere to plastic for 18–24 h. […] One set of plates (designated for the 144 h read out) were centrifuged at low speed for 30 seconds, and respective compounds were replenished in fresh media and incubated for another 68–72 h at 37°C/ 5% CO2. […] The inhibition curve was then fitted by plotting % inhibition against log concentration in GraphPad Prism 5.0 (GraphPad Software, Inc.) and the GI50 value of compound was determined. Data are representative of at least two independent experiments.

[3] = tested on: WM-266-4; assay: Cell proliferation assay (Alamar Blue); format: cell-based; details: Homo sapiens; WM-266-4, Melanoma, 144 h
Method: as §1

[4] = tested on: MM1.R; assay: Cell proliferation assay (Alamar Blue); format: cell-based; details: MM.1R, Multiple Myeloma, 144 h
Method: as §1

[5] = tested on: H2171; assay: Cell proliferation assay (Alamar Blue); format: cell-based; details: Homo sapiens, NCI-H2171; H2171, SCLC, 144 h
Method: as §1

[6] = tested on: THP-1; assay: Cell proliferation assay (Alamar Blue); format: cell-based; details: Homo sapiens; THP-1, Leukemia, 144 h
Method: as §1

[7] = tested on: HL60-MX1; assay: Cell proliferation assay (Alamar Blue); format: cell-based; details: HL60-MX1, Leukemia, 144 h
Method: as §1

[8] = tested on: H1341; assay: Cell proliferation assay (Alamar Blue); format: cell-based; details: H1341, SCLC, 144 h
Method: as §1

[9] = tested on: Hep-G2; assay: Cell proliferation assay (Alamar Blue); format: cell-based; details: Homo sapiens, HepG2; Hep-G2, Hepatocellular Carcinoma, 144 h
Method: as §1

[10] = tested on: G362; assay: Cell proliferation assay (Alamar Blue); format: cell-based; details: G362, Melanoma, 144 h
Method: as §1

[11] = tested on: Hep3B2; assay: Cell proliferation assay (Alamar Blue); format: cell-based; details: Homo sapiens, Hep3B; Hep3B2, Hepatocellular Carcinoma, 144 h
Method: as §1

[12] = tested on: Colo-289; assay: Cell proliferation assay (Alamar Blue); format: cell-based; details: Colo-289, Melanoma, 144 h
Method: as §1

[13] = tested on: H510A; assay: Cell proliferation assay (Alamar Blue); format: cell-based; details: Homo sapiens, NCI-H510A, SCLC, 144 h
Method: as §1

[14] = tested on: OCI-AML3; assay: Cell proliferation assay (Alamar Blue); format: cell-based; details: Homo sapiens, OCI-AML-3; OCI-AML3, Leukemia, 144 h
Method: as §1

[15] = target: T1, HDAC7 (Homo sapiens, UniProt Q8WUI4); assay: HDAC isoform inhibition assay (Reaction Biology); format: biochemical; details: generated at Reaction Biology Corporation
T1 construct: purchased Reaction Biology Corporation (assay run at the CRO)
T1 sequence (Q8WUI4 whole entry, canonical isoform): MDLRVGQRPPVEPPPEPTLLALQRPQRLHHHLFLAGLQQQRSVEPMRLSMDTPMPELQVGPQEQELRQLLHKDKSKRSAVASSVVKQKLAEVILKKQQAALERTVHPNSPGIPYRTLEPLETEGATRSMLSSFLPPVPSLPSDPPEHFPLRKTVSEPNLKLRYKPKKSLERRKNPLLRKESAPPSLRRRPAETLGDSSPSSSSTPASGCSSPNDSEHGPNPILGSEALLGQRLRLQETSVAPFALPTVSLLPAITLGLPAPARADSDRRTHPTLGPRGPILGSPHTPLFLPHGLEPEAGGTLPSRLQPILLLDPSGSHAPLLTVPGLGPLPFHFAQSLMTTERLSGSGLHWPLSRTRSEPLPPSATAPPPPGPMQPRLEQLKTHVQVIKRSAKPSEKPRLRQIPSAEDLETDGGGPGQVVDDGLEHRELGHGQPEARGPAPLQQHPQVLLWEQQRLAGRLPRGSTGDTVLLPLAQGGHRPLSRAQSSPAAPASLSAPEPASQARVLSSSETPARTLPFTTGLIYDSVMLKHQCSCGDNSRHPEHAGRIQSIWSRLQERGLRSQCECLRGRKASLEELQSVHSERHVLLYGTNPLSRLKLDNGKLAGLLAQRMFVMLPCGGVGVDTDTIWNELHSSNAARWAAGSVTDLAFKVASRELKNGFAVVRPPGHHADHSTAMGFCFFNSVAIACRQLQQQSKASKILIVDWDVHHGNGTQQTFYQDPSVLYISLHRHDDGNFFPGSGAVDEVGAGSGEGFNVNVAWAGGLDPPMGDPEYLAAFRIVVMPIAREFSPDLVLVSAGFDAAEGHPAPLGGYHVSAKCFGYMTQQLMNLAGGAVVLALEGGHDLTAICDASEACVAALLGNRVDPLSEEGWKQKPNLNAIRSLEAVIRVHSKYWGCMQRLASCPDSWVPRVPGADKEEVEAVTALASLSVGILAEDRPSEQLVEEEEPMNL
Method: (§2) Dose-response studies for HDAC isoforms were conducted at Reaction Biology Corporation. All assays are based on the same principle of a two-step reaction: first, the substrate with the acetylated lysine side chain is incubated with a sample containing HDAC enzyme, to produce the deacetylated products, which are then digested in the second step by the addition of the developer to produce the fluorescent signal proportional to the amount of deacetylated substrates. Recombinant proteins HDAC1, HDAC2, HDAC3, HDAC4, HDAC5, HDAC6, HDAC7, HDAC8, HDAC9, and HDAC10 were incubated with a test compound for 5min, and then the fluorophore-conjugated substrate was added to the wells and incubated for 30 min to 2 h for different HDACs. Reactions were performed in assay buffer (50 mM Tris-HCl, pH 8.0, 137 mM NaCl, 2.7 mM KCl, 1 mM MgCl2, 1 mg/mL BSA, 1% DMSO, pH 7.4) and fluorescence measurements were obtained approximately every 20 min for an hour using an Envision, Perkin-Elmer plate reader (Excitation 360 nm/Emission 460 nm). IC50 values and curve fits were obtained using (GraphPad Prism Software, Inc.).

[16] = target: T2, HDAC9 (Homo sapiens, UniProt Q9UKV0); assay: HDAC isoform inhibition assay (Reaction Biology); format: biochemical; details: generated at Reaction Biology Corporation
T2 construct: purchased Reaction Biology Corporation (assay run at the CRO)
T2 sequence (Q9UKV0 whole entry, canonical isoform): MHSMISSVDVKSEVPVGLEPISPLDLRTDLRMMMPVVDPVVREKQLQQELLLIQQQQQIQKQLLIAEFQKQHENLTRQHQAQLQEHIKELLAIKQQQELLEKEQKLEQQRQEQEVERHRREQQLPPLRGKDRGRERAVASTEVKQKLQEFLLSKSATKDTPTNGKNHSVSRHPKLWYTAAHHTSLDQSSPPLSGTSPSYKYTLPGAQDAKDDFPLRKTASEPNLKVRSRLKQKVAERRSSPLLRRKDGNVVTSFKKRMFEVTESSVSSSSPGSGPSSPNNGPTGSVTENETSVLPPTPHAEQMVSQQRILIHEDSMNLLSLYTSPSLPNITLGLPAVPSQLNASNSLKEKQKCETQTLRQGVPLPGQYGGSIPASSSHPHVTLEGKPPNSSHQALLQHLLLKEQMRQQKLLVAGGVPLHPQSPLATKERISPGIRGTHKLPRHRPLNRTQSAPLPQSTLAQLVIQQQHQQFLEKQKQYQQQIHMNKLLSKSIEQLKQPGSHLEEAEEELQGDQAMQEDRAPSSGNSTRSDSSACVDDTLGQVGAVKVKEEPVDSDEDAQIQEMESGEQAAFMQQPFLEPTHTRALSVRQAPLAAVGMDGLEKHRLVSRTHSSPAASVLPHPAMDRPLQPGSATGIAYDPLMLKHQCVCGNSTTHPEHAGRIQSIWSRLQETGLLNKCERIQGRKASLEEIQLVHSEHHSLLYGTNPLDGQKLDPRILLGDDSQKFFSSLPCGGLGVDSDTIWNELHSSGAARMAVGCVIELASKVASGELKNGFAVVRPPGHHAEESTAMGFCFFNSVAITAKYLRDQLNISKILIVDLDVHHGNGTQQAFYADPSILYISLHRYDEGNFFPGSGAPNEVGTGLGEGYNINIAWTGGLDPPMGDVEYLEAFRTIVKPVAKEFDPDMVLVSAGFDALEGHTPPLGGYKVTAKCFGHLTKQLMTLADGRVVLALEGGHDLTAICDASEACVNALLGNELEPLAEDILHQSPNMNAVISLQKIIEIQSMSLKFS
Method: as §2

[17] = target: T3, HDAC5 (Homo sapiens, UniProt Q9UQL6); assay: HDAC isoform inhibition assay (Reaction Biology); format: biochemical; details: generated at Reaction Biology Corporation
T3 construct: purchased Reaction Biology Corporation (assay run at the CRO)
T3 sequence (Q9UQL6 whole entry, canonical isoform): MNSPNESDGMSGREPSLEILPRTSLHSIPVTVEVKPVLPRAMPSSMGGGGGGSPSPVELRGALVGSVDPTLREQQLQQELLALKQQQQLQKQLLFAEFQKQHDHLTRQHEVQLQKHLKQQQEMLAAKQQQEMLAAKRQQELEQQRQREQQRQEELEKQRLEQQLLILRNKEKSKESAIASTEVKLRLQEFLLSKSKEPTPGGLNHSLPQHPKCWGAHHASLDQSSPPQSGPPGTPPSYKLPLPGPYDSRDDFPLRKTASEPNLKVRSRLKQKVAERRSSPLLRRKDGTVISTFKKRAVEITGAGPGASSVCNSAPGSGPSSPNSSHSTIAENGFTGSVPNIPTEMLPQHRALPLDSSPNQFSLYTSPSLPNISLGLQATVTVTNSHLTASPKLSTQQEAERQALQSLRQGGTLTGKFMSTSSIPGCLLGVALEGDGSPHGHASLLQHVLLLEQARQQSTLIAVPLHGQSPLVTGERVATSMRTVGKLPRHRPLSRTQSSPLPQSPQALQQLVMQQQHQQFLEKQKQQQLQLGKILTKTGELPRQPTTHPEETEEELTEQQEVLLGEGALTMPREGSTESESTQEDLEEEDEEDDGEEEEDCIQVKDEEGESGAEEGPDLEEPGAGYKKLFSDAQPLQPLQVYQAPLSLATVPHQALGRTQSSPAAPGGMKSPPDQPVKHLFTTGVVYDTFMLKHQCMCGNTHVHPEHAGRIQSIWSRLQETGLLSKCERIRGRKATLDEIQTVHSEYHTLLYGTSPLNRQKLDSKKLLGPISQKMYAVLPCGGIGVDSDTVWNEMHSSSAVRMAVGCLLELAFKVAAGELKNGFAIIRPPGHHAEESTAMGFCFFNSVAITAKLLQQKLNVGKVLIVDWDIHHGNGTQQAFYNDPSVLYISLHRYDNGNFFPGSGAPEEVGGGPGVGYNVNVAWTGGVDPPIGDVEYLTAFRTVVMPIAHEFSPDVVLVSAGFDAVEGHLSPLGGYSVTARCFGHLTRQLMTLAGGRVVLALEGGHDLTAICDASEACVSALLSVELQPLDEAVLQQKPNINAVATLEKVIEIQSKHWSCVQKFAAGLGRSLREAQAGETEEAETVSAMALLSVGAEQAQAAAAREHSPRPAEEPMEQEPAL
Method: as §2

[18] = target: T4, HDAC2 (Homo sapiens, UniProt Q92769); assay: HDAC isoform inhibition assay (Reaction Biology); format: biochemical; details: generated at Reaction Biology Corporation
T4 construct: purchased Reaction Biology Corporation (assay run at the CRO)
T4 sequence (Q92769 whole entry, canonical isoform): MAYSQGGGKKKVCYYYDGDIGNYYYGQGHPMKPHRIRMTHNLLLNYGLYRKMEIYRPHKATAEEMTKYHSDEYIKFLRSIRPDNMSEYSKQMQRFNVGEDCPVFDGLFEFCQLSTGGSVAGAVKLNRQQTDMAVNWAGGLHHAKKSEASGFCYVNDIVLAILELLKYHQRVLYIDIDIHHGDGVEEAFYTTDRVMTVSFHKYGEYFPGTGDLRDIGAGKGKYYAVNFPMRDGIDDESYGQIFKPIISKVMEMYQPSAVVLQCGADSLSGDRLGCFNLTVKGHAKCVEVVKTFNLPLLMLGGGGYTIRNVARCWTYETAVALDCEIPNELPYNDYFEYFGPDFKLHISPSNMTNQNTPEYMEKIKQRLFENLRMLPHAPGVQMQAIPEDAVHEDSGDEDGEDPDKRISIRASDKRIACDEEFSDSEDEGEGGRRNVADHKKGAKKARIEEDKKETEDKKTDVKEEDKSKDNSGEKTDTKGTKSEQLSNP
Method: as §2

[19] = tested on: HEL 92.1.7; assay: Cell proliferation assay (Alamar Blue); format: cell-based, human; details: for EC50: Homo sapiens
Method: as §1

[20] = tested on: CD11b; assay: Differentiation marker mRNA by RT-qPCR in HEL 92.1.7 cells; format: cell-based, human; details: HEL92.1.7, 3–48 h
Method: (§3) Total RNA was isolated using the TRIzol (Thermo Fisher Scientific, Waltham, MA, USA) reagent according to the manufacturer's instructions. The obtained RNA was reverse-transcribed to synthesize the complementary DNA from RNA using High Capacity cDNA Reverse Transcription Kit (Applied Biosystems, U.S.). DyNAmo ColorFlash SYBR Green qPCR Kit (Thermo Fisher Scientific) was used with cDNA and gene specific primers at a final volume of 10 μL. Real-time quantitative PCR was performed for 40 cycles of 15 s each, at 95°C and 30 s at 60°C, using a CFX96 real time machine (Bio-Rad). All reactions were performed in duplicate and the data was calculated using the delta (delta Ct) method. The relative gene expression levels for a target gene was normalized to the expression of β-actin. All the primer sequences were procured from Eurofins Genomics India Limited. Primer sequences for the analysed genes are as follows: • beta Actin [NT], beta Actin [NT]. Gfi1b [NT], Gfi1b [NT], CD86 [NT], CD86 […], CD11b [NT]

[21] = tested on: GFI1b; assay: as above; format: cell-based, human; details: HEL92.1.7, 3–48 h
Method: as §3

[22] = tested on: CD86; assay: as above; format: cell-based, human; details: HEL92.1.7, 3–48 h
Method: as §3

[23] = target: T5, HDAC1 (Homo sapiens, UniProt Q13547); assay: HDAC isoform inhibition assay (Reaction Biology); format: biochemical; details: generated at Reaction Biology Corporation
T5 construct: purchased Reaction Biology Corporation (assay run at the CRO)
T5 sequence (Q13547 whole entry, canonical isoform): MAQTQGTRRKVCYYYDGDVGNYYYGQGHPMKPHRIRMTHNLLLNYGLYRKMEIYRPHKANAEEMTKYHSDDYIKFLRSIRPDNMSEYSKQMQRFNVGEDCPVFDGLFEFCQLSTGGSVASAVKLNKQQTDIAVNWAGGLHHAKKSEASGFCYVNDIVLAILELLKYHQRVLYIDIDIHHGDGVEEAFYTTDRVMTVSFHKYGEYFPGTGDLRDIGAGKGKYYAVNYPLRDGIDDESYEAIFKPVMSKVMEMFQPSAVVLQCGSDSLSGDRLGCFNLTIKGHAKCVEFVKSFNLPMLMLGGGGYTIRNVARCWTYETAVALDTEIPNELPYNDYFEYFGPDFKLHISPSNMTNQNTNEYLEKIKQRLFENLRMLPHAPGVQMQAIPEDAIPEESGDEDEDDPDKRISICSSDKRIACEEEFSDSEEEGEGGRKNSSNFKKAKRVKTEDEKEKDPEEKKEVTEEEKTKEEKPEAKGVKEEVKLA

[24] = tested on: MM1.S xenograft; assay: MM1.S multiple myeloma xenograft model; format: in vivo; details: for TGI: 13 d

O=C(NO)c1ccc(CCCN2CCC(CN[C@H]3C[C@@H]3c3ccccc3)CC2)cc1 (relative stereo) [JBI-097]
% tumor growth inhibition (TGI) ([1]; 25 mg/kg): 76%
body weight loss ([1]; 50 mg/kg group, observed in 2 animals): 5–10%
% tumor growth inhibition (TGI) ([1]; 50 mg/kg): 91%
EC50 [2]: 1.5 µM
EC50 [3]: 6.83 µM
EC50 [4]: 0.029 µM
EC50 [5]: 2.7 µM
EC50 [6]: 0.226 µM
EC50 [7]: 0.034 µM
EC50 [8]: 3.26 µM
EC50 [9]: 1.1 µM
EC50 [10]: 7.64 µM
EC50 [11]: 1.3 µM
EC50 [12]: 2.19 µM
EC50 [13]: 1.06 µM
EC50 [14]: 0.03 µM
IC50 [15]: 3.58 µM
IC50 [16]: 3.43 µM
IC50 [17]: 1.14 µM
IC50 [18]: 3.95 µM
cell growth inhibition reached (plateau) ([19]; HEL92.1.7, 6 days of incubation, up to 10 μM): 100%
EC50 ([19]; HEL 92.1.7, read-out: anti-proliferative EC50, HEL92.1.7, 3 days (72 h) of incubation): 0.722 µM
EC50 ([19]; HEL 92.1.7, Leukemia, 144 h, read-out: EC50, 144hr): 0.049 µM
CD11b modulation (mRNA) [20]: strong and sustained up-regulation
GFI1b modulation (mRNA) [21]: strong and sustained up-regulation
CD86 modulation (mRNA) [22]: strong and sustained up-regulation
IC50 [23]: 3.4 µM
TGI ([24]; JBI-097 12.5 mg/kg PO in combination with BTZ (0.5 mg/kg IP BIW)): 82%
tolerability ([24]; JBI-097 12.5 mg/kg PO in combination with Pomalidomide): well tolerated
TGI ([24]; JBI-097 12.5 mg/kg PO in combination with pomalidomide (2.5 mg/kg PO 5x/week)): 60%
TGI ([24]; single agent, 12.5 mg/Kg PO QD): 23%
